Test results from patent US20130096077A1, “Nematicidal Mixtures for Use in Sugar Cane” (priority 2010, published 2013).

Legend:
Type in all cases: in vivo
sugar cane = experiment: Plant health activity: tillering of sugar cane; settings: fipronil 200, abamectin 90, mixture 200 + 90 g a.i./ha; for No. of tillers 180 days after planting: average per 1.0 linear meter, in furrow at planting, blank 19.75; for % of increase: tillers 180 days after planting vs blank
Experimental: (§1) Fipronil was used in the commercially available formulation Regent® 800 WG, containing Fipronil in a concentration of 800 g/kg. Abamectin was used in the commercially available EC formulation Vertimec® 18 CE, containing Abamectin in a concentration of 18 g/I.
(§2) Tank mixes of the commercial formulations of fipronil and abamectin diluted with water were prepared in a ratio such that the application rates identified in the tables below were achieved when 100 liter of tank mix formulation were applied to sugar cane in furrow.
(§3) The tank mix formulation was applied in furrow spraying over the sugar cane stems (cuttings/segments, 1 to 3 nodes segments) at the planting time.
(§4) The synergistic effect was determined by Limpel's formula. Synergism was evident if the observed effect for the mixture is greater than the expected calculated effect:
(§5) E=Expected activity of the mixture X=activity of compound X Y=activity of compound Y
The tank mix formulation of the mixture of fipronil and abamectin was prepared as described above for testing of nematicidal activity. The tank mix formulation was applied to sugar cane as described above for testing of nematicidal activity.
Tillering was evaluated before the application of the tank mix (“blank” in Table 2) and 180 days after planting/application the tank mix formulation. Each replication (plot) was evaluated at 3 different randomized points, each point consisting of 1.0 linear meter of the central rows of the plot. Evaluation was done for 4 replications (plots).

[1] = tested on: sugar cane (variety SP80-1842); experiment: Yield increase of sugar cane; settings: fipronil 200, abamectin 126, mixture 200 + 126 g a.i./ha; for Yield: in furrow at planting, untreated 102.81; for % increase of yield: vs untreated
Paratrichodorus species = experiment: Nematicidal activity, sugar cane field, in furrow tank mix application; settings: fipronil 200, abamectin 90, mixture 200 + 90 g a.i./ha; for Nematode activity in the soil 90 days after planting: 1000 ml soil incl. roots, in furrow at planting, blank 133; for Efficacy/mortality: 90 days after planting, in furrow
Experimental: as §1, §2, §3, §4, §5
(§6) Treatments were done mid of June 2009 in Brazil in sugar cane fields which had not been pretreated with nematicides, that is, in fields showing an average nematode population.
(§7) Treatments were done only at the time of planting, that is, no further in furrow treatment was conducted. Each treatment experiment was replicated 6 times.
(§8) Nematicidal activity for Helicotylenchus and Paratrichodorus species was evaluated before the spraying for different portions of 1000 ml of soils collected at different sites of the field (“blank” in Table 1).
(§9) 90 days after spraying the tank mix formulation, different portions of 1000 ml of soil (including roots) were collected at different sites of the field, and the soil and the root knots were evaluated for nematicidal activity of Helicotylenchus and Paratrichodorus species and efficacy/mortality, respectively.
(§10) Synergism was evident if the % observed mortality for the mixture was greater than the % expected mortality.

Helicotylenchus species = experiment: as above; settings: fipronil 200, abamectin 90, mixture 200 + 90 g a.i./ha; for Nematode activity in the soil 90 days after planting: 1000 ml soil incl. roots, in furrow at planting, blank 317; for Efficacy/mortality: 90 days after planting, in furrow
Experimental: as §1, §2, §3, §4, §5, §6, §7, §8, §9, §10

Row | Molecule | No. of tillers 180 days after planting (sugar cane) | % of increase (sugar cane) [%] | Yield [1] [tons/ha] | % increase of yield [1] [%] | Nematode activity in the soil 90 days after planting (Paratrichodorus species) | Efficacy/mortality (Paratrichodorus species) [%] | Nematode activity in the soil 90 days after planting (Helicotylenchus species) | Efficacy/mortality (Helicotylenchus species) [%]
1 | N#Cc1nn(-c2c(Cl)cc(C(F)(F)F)cc2Cl)c(N)c1[S+]([O-])C(F)(F)F (stereo not shown) [Fipronil] | 20.25 | 2.5 | 106.31 | 3.4 | 100 | 25 | 367 | 0
2 | Abamectin | 21.5 | 8.9 | 106.33 | 3.4 | 133 | 0 | 117 | 63
